From patent US20140038883A1, “NOVEL AZACOUMARIN DERIVATIVES HAVING MDR PUMP INHIBITING ACTIVITY” (UNIVERSITE CLAUDE BERNARD LYON 1, priority 2011, published 2014)
Values belong to the molecule of their own block, whether it stands above or below them.

Experiments:
[1] = system: S. aureus ATCC 29213, 1199b, 1199, K1712, 8325.4; experiment: Supplemental EPI tests: potentiation of antibiotic MICs; format: cell-based, Staphylococcus aureus
Protocol: (§1) The molecules of which the EPI effect was evaluated are: I.1 (24 μmol/l), I.6 (16 μmol/l) and I.14 (31 μmol/l).
(§2) The antibiotics with which these molecules were combined are: ciprofloxacin and norfloxacin; tetracycline; oxacillin; erythromycin and vancomycin.
(§3) The bacterial strains tested are S. aureusATCC 29213; S. aureus 1199b overexpressing NorA and also S. aureus 1199, the strain from which it is derived; S. aureus K1712 not expressing NorA and also S. aureus 8325.4 (the strain from which it is derived).
(§4) The methodology used is based on the MIC technique described previously.

[2] = system: S. aureus K1712 not expressing NorA; experiment: as above; format: cell-based, Staphylococcus aureus; conditions: strain not expressing NorA
Protocol: as §1, §2, §3, §4

[3] = system: S. aureus 1199b overexpressing NorA; experiment: as above; format: cell-based, Staphylococcus aureus; conditions: for potentiating activity in the presence of tetracycline and of erythromycin: 1199b strain
Protocol: as §1, §2, §3, §4

[4] = system: Enterococcus faecium (VSE, VRE strains); experiment: Spectrum of activity: I.12 + ciprofloxacin, E. faecium strains; format: cell-based; conditions: for Number of sensitive strains / Percentage of sensitive strains: ciprofloxacin + I.12
Protocol: (§5) The antibiotic used is ciprofloxacin with the same dilution as in section B.1. The compound I.12 is also used under the same conditions as in section B.1.
(§6) Fifty-six strains belonging to 19 genera were used (TABLE 6).
(§7) Nine of these strains are ATCC strains and 47 are of clinical origins and come from the Centre de Biologie Est [Eastern Biological Center] in Bron. Eighteen staphylococcal strains are tested: 1 strain of S. epidermidis, 2 strains of S. aureus, 10 MRSA (methicillin-resistant S. aureus) and 5 VISA (vancomycin intermediate sensitivity S. aureus). Sixteen enterococcal strains are also tested, i.e. 9 E. faecium and 7 E. faecalis. The latter 2 species grouped together 2 vancomycin-sensitive strains (1 per species), and 14 resistant strains (VRE, respectively 8 E. faecium and 6 E. faecalis).
(§8) This potentiating effect is evaluated as previously. However, the growth of certain microorganisms (Streptococcus pneumoniae, S. agalactiae, S. pyogenes, Corynebacterium amycolatum and Listeria monocytogenes) in liquid medium requires defibrinated horse blood lysed in 50% of sterile osmosed water via a succession of 7 freezings (−20° C.)/thawing (ambient temperature). The 50% blood is then centrifuged at ambient temperature at 12 000 rpm for 20 min. The supernatant is introduced into sterile, additive-free MH II in an amount of 5% by volume.

VISA (strain V4) = experiment: Chessboard method, I.12 combined with ciprofloxacin (FIC); format: cell-based, Staphylococcus aureus; conditions: I.12 and ciprofloxacin; FIC≦0.5 = synergy
S. aureus ATCC 29213 [5] = experiment: Time kill curve method, I.12/ciprofloxacin combination; format: cell-based, Staphylococcus aureus; conditions: ciprofloxacin (0.5 mg/ml and 0.125 mg/m)/I.12 (31 μM); mean of two experiments
Protocol: The time kill curve is performed in 6-well plates. Each well contains 5 ml of MH II broth inoculated with bacteria in the exponential growth phase (final concentrations at 10^6 CFU/ml). The various bacterial growth conditions tested are: • Well 1: 0.5 mg/ml of ciprofloxacin +31 μM of I.12. • Well 2: 0.125 mg/ml of ciprofloxacin +31 μM of I.12. • Well 3: 0.5 mg/ml of ciprofloxacin. • Well 4: 0.125 mg/ml of ciprofloxacin. • Well 5: 31 μM of I.12. • Well 6: No molecule.
The cultures are incubated at 37° C. with shaking at 400 rpm. Samples are taken every hour for the first 6 hours, and at 22 hours. The live bacteria are counted by culturing on a dish after dilutions of the cultures.

[6] = system: Staphylococcus epidermidis; experiment: Spectrum of activity: I.12 + ciprofloxacin, S. epidermidis; format: cell-based
Protocol: as §5, §6, §7, §8

[7] = system: S. aureus 1199B (strain overexpressing NorA); experiment: Chessboard method, I.12 combined with antibiotics; format: cell-based, Staphylococcus aureus
[8] = system: Enterococcus faecalis (VSE, VRE strains); experiment: Spectrum of activity: I.12 + ciprofloxacin, E. faecalis strains; format: cell-based; conditions: for Number of sensitive strains / Percentage of sensitive strains: ciprofloxacin + I.12
Protocol: as §5, §6, §7, §8

S. aureus ATCC 29213 [9] = experiment: Chessboard method, I.12 combined with antibiotics (FIC); format: cell-based, Staphylococcus aureus; conditions: I.12 and ciprofloxacin; FIC≦0.5 = synergy
Protocol: The antibiotics used are erythromycin, ciprofloxacin, vancomycin, tetracycline and oxacillin.
The sensitivity of S. aureus ATCC 29213 to the combination of the antibiotic molecules ciprofloxacin and the compound I.12 and the effect of each of the two molecules on the activity of the other are determined using the chessboard method. This method is carried out in a round-bottomed 96-well plate (12 columns by 8 rows). Various concentrations of ciprofloxacin and of compound I.12 are obtained by a dilution of their stock solutions in MH II broth. Fifty microliters of the dilution range of the compound I.12 are deposited in each well of columns 1 to 10, each row corresponding to a dilution of this compound. Fifty microliters of the dilution range of ciprofloxacin are deposited in the wells of columns 2 to 10, each column corresponding to a dilution. This same dilution range of ciprofloxacin is also prepared in column 11. Fifty microliters of MH II broth are deposited in the wells of columns 1 and 11. Finally, 100 μl of bacterial suspension at 10^6 CFU (Colony-Forming Units)/ml are introduced in each well of columns 1 to 10 (final concentration of bacteria: 5×10^5 CFU/ml).
The plate is read visually. […] The fractional inhibitory concentration (FIC) is calculated by adding the FIC of the compound I.12 (FICI.12) and the FIC of ciprofloxacin (FICcipro) according to the following formulae: […]

[10] = system: S. aureus K 1712 (strain without NorA pump); experiment: Chessboard method, I.12 combined with antibiotics; format: cell-based, Staphylococcus aureus; conditions: each ATB
[11] = system: Fifty-six strains belonging to 19 genera; experiment: Spectrum of activity: potentiating effect of compound I.12 on ciprofloxacin (MIC method); format: cell-based
Protocol: as §5, §6, §7, §8

[12] = system: Staphylococcus aureus (MSSA, MRSA, VISA strains); experiment: Spectrum of activity: I.12 + ciprofloxacin, S. aureus strains; format: cell-based; conditions: for Number of sensitive strains / Percentage of sensitive strains: ciprofloxacin + I.12
Protocol: as §5, §6, §7, §8

MRSA (strain ST07 1012) = experiment: Chessboard method, I.12 combined with ciprofloxacin (FIC); format: cell-based, Staphylococcus aureus; conditions: I.12 and ciprofloxacin; FIC≦0.5 = synergy
S. aureus ATCC 29213 [13] = experiment: Antibiotic activity of the compounds alone (MIC technique); format: cell-based, Staphylococcus aureus; conditions: compound alone, 18-24 h at 37° C., MH II medium
Protocol: All the compounds according to the invention are solubilized in dimethylsufoxide (DMSO). For each compound, the highest concentration usable during the experiments is determined by taking into account the toxicity of the solvent (final concentration of DMSO in contact with the bacteria of less than 3%) and also the capacity of the compound to solubilize in Mueller Hinton II (MH II) media. This is because some compounds precipitate during dilutions of solutions based on DMSO in MH II media. The strain for screening the compounds is a strain of Staphylococcus aureus from the American Type Culture Collection or ATCC, called S. aureus ATCC 29213. The antibiotic activity of a molecule is evaluated using the MIC technique. The MIC of a molecule is determined in a 96-well microplate, in MH II liquid medium according to the protocol of the CASFM and of the CLSI. A dilution range of the molecule is prepared beforehand in MH II medium. In each well, 100 μl of a bacterial suspension of SI aureus ATCC 29213 (10^6 CFU/ml), 50 μl of the dilution range of the compound tested and 50 μl of MH II are mixed. After 18-24 h of incubation at 37° C., the molecules having shown an inhibition of bacterial growth are recorded as having an antibiotic activity. The lowest concentration of compound for which no bacterial growth is observed is the MIC (lowest concentration inhibiting the growth of the bacteria).

Structure (SMILES): COc1cc(OC)c2c(C)c(-c3cccc(Cl)c3)c(=O)[nH]c2c1 [compound I.1, 3-(3-chlorophenyl)-5,7-dimethoxy-4-methylquinolin-2(1H)-one]
- EPI effects of the compound in combination with antibiotics ([1]; I.1 at 24 μmol/l): minor

Structure (SMILES): COc1cc(OC)c2c(C)c(-c3c[nH]c4ccccc34)c(=O)[nH]c2c1 [compound I.6, 3-(1H-indol-3-yl)-5,7-dimethoxy-4-methylquinolin-2(1H)-one]
- potentiating activity coupled to non-fluoroquinolone antibiotics ([1]; tetracycline, oxacillin, erythromycin, vancomycin): not very effective
- potentiating activity of the combinations [2]: zero
- potentiating activity in the presence of tetracycline and of erythromycin [3]: does not exist
- potentiating activity combined with one of the two fluoroquinolones ([3]; norfloxacin or ciprofloxacin, strain overexpressing NorA): particularly notable

Structure (SMILES): COc1cc(O)c2c(C)c(Cc3ccccc3)c(=O)[nH]c2c1 [compound I.14, 3-benzyl-5-hydroxy-7-methoxy-4-methylquinolin-2(1H)-one]
- melting point: > 278 °C (dec.)
- improvement in the MICs (fold) in the presence of norfloxacin and of ciprofloxacin ([1]; I.1 24 μmol/l, I.6 16 μmol/l, I.14 31 μmol/l): results are identical
- potentiating activity in the presence of tetracycline and of erythromycin [3]: weak activity

Structure (SMILES): COc1cc(O)c2c(C)c(-c3ccccc3)c(=O)[nH]c2c1 [compound I.12, 5-hydroxy-7-methoxy-4-methyl-3-phenylquinolin-2(1H)-one]
- sensitive strains / strains tested, combination with ciprofloxacin ([4]; E. faecium (the 5 being VREs)): 5/9
- Number of sensitive strains ([4]; E. faecium VRE, 8 tested): 5
- Percentage of sensitive strains ([4]; E. faecium VRE): 62.5%
- Number of sensitive strains ([4]; E. faecium VSE, 1 tested): 0
- Percentage of sensitive strains ([4]; E. faecium VSE): 0
- factor by which the ciprofloxacin MIC is divided in the presence of the compound ([4]; two E. faecium VRE strains not listed in the 28, weakly sensitive): ≥ 2
- FIC (fractional inhibitory concentration) (VISA (strain V4)): ≤ 0.5
- reduction of CFU/ml of the combination versus the most active molecule alone (synergistic effect) (S. aureus ATCC 29213 [5]): ≥ 2 log10
- sensitive strains / strains tested, combination with ciprofloxacin ([6]; S. epidermidis): 1/1
- Number of sensitive strains ([6]; S. epidermidis sensitive strain, 1 tested, ciprofloxacin + I.12): 1
- Percentage of sensitive strains ([6]; S. epidermidis sensitive strain, ciprofloxacin + I.12): 100%
- interaction with antibiotics (chessboard) [7]: highly synergistic combination
- sensitive strains / strains tested, combination with ciprofloxacin ([8]; E. faecalis (4 are VREs)): 5/7
- Number of sensitive strains ([8]; E. faecalis VRE, 6 tested): 4
- Percentage of sensitive strains ([8]; E. faecalis VRE): 67%
- Number of sensitive strains ([8]; E. faecalis VSE, 1 tested): 1
- Percentage of sensitive strains ([8]; E. faecalis VSE): 100%
- FIC (fractional inhibitory concentration) (S. aureus ATCC 29213 [9]): ≤ 0.5
- interaction with antibiotics (chessboard) [10]: absence of interaction
- number of strains more sensitive to ciprofloxacin when the compound is combined ([11]; among the 56 bacterial strains tested): 28
- factor by which the ciprofloxacin MICs are divided in the presence of the compound ([11]; each of the 28 sensitive strains, except one): 16
- factor by which the ciprofloxacin MIC is divided in the presence of the compound ([11]; the one exception among the 28 sensitive strains): ≥ 4
- Number of sensitive strains ([12]; MRSA, 10 strains tested): 10
- Percentage of sensitive strains ([12]; MRSA): 100%
- Number of sensitive strains ([12]; MSSA, 2 strains tested): 2
- Percentage of sensitive strains ([12]; MSSA): 100%
- sensitive strains / strains tested, combination with ciprofloxacin ([12]; S. aureus sensitive to conventional antibiotics): 2/2
- sensitive strains / strains tested, combination with ciprofloxacin ([12]; S. aureus with reduced sensitivity to vancomycin (VISA)): 5/5
- Number of sensitive strains ([12]; VISA, 5 strains tested): 5
- Percentage of sensitive strains ([12]; VISA): 100%
- sensitive strains / strains tested, combination with ciprofloxacin ([12]; methicillin-resistant S. aureus (MRSA)): 10/10
- FIC (fractional inhibitory concentration) (MRSA (strain ST07 1012)): ≤ 0.5

- melting point: 189 to 190 °C
Structure (SMILES): COc1cc(O)c2c3c(c(=O)[nH]c2c1)CCC3 [compound I.15, 2,3-dihydro-9-hydroxy-7-methoxy-1H-cyclopenta[c]quinolin-4(5H)-one]

- antibiotic activity alone, concentration (MIC) (S. aureus ATCC 29213 [13]): 155 µM
Structure (SMILES): Cc1c(-c2ccccc2)c(=O)[nH]c2cc(O)cc(O)c12 [compound I.13, 5,7-dihydroxy-4-methyl-3-phenylquinolin-2(1H)-one]
